Calls of active or inactive are those of the source. The calls are words filed in the database; no cut-off is given here.
What was measured:
[1] = target: T1, Atrial natriuretic peptide receptor 2 (Homo sapiens) (UniProt P20594); assay: Inhibition of ANPb Lys2 labeling site in human A-375 cells at 5 uM by KiNativ Profiling analysis relative to control; assay type: cell-based
T1 sequence (whole entry): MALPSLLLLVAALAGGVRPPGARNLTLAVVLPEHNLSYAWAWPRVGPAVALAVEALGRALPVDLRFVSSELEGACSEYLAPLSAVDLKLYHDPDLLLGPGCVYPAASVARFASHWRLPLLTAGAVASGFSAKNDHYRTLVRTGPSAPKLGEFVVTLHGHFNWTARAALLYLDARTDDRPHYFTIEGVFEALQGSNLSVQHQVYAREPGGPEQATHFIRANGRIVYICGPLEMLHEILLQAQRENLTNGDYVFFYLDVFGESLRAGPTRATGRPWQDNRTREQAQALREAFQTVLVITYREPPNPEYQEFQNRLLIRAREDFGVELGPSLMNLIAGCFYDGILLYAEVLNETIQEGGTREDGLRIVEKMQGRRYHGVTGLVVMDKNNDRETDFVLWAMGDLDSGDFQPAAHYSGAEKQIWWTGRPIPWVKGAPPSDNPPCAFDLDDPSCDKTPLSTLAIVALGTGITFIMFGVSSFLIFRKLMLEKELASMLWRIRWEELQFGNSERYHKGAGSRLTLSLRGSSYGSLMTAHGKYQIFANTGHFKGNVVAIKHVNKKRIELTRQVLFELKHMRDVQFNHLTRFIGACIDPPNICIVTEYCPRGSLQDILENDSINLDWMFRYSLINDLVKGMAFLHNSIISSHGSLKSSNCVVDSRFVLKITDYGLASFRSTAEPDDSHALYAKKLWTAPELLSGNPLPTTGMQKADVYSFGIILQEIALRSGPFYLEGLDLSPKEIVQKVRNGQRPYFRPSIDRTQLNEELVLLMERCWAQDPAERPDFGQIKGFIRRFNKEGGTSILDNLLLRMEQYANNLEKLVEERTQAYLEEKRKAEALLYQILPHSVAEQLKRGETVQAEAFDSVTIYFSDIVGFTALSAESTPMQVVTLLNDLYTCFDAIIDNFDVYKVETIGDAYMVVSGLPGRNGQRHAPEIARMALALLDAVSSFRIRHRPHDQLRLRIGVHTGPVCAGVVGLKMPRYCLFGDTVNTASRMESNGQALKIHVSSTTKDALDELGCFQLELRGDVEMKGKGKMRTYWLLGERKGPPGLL

[2] = target: Putative phosphatidylinositol 4-kinase alpha-like protein P2 (Homo sapiens) (UniProt A4QPH2); assay: Inhibition of PI4KAP2 ATP labeling site in human A-375 cells at 0.05 uM by KiNativ Profiling analysis relative to control; assay type: cell-based
Putative phosphatidylinositol 4-kinase alpha-like protein P2 (Homo sapiens), sequence (A4QPH2 whole entry): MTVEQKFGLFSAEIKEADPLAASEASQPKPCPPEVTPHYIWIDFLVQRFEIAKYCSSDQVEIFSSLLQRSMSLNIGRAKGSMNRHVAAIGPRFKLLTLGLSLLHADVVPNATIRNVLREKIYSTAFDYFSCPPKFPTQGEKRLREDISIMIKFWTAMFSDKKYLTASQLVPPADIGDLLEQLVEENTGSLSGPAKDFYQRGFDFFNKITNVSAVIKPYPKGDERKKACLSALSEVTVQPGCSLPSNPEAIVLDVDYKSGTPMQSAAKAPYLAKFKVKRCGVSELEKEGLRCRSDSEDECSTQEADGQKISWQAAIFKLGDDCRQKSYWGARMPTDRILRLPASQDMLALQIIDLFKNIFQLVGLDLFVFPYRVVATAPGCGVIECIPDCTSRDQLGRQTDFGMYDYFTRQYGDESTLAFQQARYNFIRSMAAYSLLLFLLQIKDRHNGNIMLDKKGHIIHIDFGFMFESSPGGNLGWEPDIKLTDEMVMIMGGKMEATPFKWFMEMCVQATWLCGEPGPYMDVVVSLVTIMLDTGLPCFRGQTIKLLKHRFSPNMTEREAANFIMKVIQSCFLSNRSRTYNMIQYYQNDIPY

[3] = target: Cyclin-G-associated kinase (Homo sapiens) (UniProt O14976); assay: Inhibition of GAK (unknown origin) at 1 uM by Ambit Kinomescan binding assay relative to control; values are per cent of control
Cyclin-G-associated kinase (Homo sapiens), sequence (O14976 whole entry): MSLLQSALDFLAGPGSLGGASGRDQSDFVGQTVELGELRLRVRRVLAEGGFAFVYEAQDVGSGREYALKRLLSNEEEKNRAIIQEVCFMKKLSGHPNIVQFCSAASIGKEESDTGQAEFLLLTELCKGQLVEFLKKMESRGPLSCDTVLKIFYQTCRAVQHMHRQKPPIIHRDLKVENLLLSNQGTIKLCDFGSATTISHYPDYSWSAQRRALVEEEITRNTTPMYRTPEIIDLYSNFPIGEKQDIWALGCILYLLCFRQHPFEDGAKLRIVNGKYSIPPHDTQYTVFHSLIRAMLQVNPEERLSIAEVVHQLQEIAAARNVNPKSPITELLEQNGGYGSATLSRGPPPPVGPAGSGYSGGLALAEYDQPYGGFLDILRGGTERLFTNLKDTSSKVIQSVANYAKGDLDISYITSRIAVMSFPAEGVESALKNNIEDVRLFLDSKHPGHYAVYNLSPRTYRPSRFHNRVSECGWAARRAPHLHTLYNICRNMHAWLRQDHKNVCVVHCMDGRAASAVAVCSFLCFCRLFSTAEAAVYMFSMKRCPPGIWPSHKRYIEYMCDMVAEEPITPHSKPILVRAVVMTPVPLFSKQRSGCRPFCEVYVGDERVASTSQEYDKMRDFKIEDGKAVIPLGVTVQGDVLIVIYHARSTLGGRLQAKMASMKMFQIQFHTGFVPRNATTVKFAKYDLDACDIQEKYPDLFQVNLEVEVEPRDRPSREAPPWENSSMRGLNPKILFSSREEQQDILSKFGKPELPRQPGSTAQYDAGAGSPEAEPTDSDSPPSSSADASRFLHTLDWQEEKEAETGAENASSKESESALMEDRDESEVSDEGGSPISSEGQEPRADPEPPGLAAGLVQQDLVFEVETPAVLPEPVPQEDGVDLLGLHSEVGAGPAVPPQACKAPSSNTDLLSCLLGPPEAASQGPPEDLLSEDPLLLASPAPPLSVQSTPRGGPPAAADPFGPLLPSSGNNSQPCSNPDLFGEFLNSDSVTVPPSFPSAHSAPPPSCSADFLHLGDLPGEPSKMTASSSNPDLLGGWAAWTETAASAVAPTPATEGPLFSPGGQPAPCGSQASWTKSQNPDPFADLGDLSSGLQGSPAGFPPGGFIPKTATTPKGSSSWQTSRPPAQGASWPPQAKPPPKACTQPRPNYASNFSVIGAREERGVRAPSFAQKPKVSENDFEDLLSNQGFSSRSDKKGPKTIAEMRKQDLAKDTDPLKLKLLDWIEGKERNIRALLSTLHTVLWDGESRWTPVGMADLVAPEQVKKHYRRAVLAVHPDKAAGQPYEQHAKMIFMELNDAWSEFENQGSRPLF

[4] = target: Dual specificity mitogen-activated protein kinase kinase 1 (Homo sapiens) (UniProt Q02750); assay: Inhibition of MEK1 (unknown origin) at 10 uM by Ambit Kinomescan binding assay
Dual specificity mitogen-activated protein kinase kinase 1 (Homo sapiens), sequence (Q02750 whole entry): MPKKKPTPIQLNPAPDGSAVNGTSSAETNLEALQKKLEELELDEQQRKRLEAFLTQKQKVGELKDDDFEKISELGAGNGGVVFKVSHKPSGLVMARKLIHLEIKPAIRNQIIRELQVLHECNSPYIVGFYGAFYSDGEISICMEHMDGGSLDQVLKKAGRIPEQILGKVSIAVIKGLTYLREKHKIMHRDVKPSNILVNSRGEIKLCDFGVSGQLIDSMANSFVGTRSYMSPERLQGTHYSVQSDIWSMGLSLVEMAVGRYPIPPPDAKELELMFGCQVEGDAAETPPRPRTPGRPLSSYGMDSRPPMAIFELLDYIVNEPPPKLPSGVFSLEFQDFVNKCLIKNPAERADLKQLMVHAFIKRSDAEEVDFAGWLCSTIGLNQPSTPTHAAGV

[5] = tested on: Serine/threonine-protein kinase B-raf (Homo sapiens), P15056 [V600E]; assay: Inhibition of BRAF V600E mutant (unknown origin) at 10 uM by Ambit Kinomescan binding assay relative to control
Serine/threonine-protein kinase B-raf (Homo sapiens), P15056 [V600E], sequence (P15056 whole entry V600E): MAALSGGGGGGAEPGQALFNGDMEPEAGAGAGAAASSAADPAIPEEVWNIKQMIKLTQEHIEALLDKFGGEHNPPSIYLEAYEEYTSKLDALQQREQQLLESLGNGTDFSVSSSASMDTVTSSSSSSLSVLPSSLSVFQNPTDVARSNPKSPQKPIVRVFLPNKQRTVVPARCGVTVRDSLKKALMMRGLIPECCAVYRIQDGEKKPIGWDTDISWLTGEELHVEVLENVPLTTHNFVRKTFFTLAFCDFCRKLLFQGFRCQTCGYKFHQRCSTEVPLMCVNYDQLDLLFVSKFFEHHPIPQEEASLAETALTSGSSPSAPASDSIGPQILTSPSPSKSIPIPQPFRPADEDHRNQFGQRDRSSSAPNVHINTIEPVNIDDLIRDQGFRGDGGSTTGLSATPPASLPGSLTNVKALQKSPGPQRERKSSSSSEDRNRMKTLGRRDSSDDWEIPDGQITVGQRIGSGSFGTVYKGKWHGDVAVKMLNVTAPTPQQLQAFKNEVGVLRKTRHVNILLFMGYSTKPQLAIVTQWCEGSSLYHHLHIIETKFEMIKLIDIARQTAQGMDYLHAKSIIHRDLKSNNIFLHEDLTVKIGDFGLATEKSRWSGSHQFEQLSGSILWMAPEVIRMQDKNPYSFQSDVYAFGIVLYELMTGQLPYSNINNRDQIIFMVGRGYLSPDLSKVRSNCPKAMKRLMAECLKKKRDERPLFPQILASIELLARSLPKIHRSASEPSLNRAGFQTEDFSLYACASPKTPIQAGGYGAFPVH

[6] = tested on: Receptor-type tyrosine-protein kinase FLT3 (Homo sapiens), P36888 [UNDEFINED MUTATION]; assay: Inhibition of FLT3 ITD mutant (unknown origin) at 10 uM by Ambit Kinomescan binding assay relative to control
Receptor-type tyrosine-protein kinase FLT3 (Homo sapiens), P36888 [UNDEFINED MUTATION], sequence (P36888 whole entry, looked up, change not shown): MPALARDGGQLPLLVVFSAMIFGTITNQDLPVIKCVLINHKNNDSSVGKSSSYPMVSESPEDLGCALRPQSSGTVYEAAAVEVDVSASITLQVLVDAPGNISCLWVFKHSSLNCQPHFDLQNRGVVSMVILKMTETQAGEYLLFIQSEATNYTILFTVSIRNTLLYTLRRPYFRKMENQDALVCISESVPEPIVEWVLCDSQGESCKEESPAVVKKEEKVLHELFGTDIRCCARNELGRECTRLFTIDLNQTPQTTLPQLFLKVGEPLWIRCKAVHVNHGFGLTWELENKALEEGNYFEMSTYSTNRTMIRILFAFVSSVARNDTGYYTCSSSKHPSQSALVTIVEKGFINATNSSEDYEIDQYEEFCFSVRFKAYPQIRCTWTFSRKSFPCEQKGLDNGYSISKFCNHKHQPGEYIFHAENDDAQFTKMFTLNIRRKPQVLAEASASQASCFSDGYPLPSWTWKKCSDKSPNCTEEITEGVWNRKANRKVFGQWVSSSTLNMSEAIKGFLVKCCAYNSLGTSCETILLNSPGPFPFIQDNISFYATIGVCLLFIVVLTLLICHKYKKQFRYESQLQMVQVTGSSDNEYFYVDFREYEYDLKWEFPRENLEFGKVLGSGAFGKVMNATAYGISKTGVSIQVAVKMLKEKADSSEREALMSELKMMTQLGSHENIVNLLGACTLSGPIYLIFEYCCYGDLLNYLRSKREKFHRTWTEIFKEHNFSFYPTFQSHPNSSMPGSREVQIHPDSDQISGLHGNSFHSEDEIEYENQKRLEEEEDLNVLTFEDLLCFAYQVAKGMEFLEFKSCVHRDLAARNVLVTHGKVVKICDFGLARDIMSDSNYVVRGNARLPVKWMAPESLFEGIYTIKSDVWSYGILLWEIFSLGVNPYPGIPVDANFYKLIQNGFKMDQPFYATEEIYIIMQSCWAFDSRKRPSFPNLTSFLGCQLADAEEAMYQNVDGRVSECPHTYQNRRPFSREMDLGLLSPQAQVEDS

[7] = target: T2, Serine/threonine-protein kinase STK11 (Homo sapiens) (UniProt Q15831); assay: Inhibition of LKB1 K2 labeling site in human Huh-7 cells at 10 uM by KiNativ Profiling analysis relative to control; assay type: cell-based
T2 sequence (whole entry): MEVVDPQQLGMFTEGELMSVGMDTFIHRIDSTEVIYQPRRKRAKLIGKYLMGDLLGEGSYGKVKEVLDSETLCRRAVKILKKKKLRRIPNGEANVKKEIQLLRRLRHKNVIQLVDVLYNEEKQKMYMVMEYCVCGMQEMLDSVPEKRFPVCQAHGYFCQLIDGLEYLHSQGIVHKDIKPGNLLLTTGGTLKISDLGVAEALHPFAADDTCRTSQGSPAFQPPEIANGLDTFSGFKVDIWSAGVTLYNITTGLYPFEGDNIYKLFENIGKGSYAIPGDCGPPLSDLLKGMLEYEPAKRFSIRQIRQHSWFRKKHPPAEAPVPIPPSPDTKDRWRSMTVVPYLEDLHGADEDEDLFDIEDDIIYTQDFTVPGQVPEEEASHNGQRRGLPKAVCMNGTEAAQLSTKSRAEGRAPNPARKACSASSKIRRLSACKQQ

[8] = target: Cyclin-G-associated kinase (Homo sapiens) (UniProt O14976); assay: Inhibition of GAK (unknown origin) at 10 uM by Ambit Kinomescan binding assay relative to control
[9] = target: T3, Phosphatidylinositol 5-phosphate 4-kinase type-2 gamma (Homo sapiens) (UniProt Q8TBX8); assay: Inhibition of PIP4K2C ATP labeling site harbouring VKELPTLKDMDFLNK in human Huh-7 cells at 1 uM by KiNativ Profiling analysis relative to control; assay type: cell-based
T3 sequence (whole entry): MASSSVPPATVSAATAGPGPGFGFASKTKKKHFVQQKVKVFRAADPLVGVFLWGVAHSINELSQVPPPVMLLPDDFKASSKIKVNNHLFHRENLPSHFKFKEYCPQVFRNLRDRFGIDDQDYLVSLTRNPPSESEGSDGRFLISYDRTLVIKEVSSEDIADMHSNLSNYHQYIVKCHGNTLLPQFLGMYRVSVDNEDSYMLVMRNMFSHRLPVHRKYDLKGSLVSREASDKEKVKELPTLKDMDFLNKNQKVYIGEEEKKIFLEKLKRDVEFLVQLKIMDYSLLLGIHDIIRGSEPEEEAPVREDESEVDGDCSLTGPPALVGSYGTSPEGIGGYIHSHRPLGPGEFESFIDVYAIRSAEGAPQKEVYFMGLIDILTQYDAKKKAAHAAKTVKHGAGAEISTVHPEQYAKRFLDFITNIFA

[10] = target: Ribosomal protein S6 kinase alpha-3 (Homo sapiens) (UniProt P51812); assay: Inhibition of RSK2 domain2 Protein Kinase Domain labeling site in human Huh-7 cell lysate at 1 uM by KiNativ Profiling analysis relative to control; assay type: subcellular
Ribosomal protein S6 kinase alpha-3 (Homo sapiens), sequence (P51812 whole entry, the tested form may be a part): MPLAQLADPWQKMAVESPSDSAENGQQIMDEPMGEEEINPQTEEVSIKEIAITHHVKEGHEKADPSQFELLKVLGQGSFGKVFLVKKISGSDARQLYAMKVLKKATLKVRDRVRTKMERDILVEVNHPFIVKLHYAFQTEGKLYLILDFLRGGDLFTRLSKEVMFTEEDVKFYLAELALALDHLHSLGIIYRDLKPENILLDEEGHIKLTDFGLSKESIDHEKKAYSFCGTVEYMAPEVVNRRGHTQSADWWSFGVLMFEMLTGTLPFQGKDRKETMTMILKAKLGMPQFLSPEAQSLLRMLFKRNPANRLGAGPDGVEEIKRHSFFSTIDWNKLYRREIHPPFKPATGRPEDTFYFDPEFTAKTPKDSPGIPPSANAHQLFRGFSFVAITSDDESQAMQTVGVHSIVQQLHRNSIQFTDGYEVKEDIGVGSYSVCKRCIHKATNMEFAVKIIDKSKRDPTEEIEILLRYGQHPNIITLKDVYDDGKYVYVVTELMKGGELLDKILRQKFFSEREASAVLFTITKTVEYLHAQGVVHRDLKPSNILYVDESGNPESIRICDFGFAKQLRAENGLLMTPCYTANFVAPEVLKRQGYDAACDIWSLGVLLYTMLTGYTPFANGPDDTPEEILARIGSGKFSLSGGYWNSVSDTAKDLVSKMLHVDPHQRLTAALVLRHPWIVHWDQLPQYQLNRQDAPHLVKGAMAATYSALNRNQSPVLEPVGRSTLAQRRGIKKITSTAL

Structure (SMILES): CCN1CCN(Cc2ccc(NC(=O)c3ccc(C)c(/C=C/c4cnc5[nH]ccc5c4OC)c3)cc2C(F)(F)F)CC1
- inhibition [1]: -8.8%
- inhibition [2]: 0.8%
- residual activity [3]: 7%

Structure (SMILES): CCN1CCN(Cc2ccc(NC(=O)c3ccc(C)c(Oc4ccnc5[nH]ccc45)c3)cc2C(F)(F)F)CC1
- inhibition [4]: inactive
- inhibition [5]: 4%
- inhibition [6]: 0.7%
- inhibition [7]: 11.6%
- inhibition [8]: 31%

Structure (SMILES): CNc1cc(Oc2cc(C(=O)Nc3cc(N4CCN(C)CC4)cc(C(F)(F)F)c3)ccc2C)ncn1
- inhibition [9]: 5.4%
- inhibition [10]: 5.9%
